Assay [1] concerns the target T1, D2LR (Homo sapiens, UniProt P14416). Kind of assay: β-Arrestin-2 recruitment (BRET). The assay is classed as cell-based. Also on record: expressed in transfected cells. As to the method:
β-Arrestin-2 recruitment. […] To assess β-arrestin-2 recruitment to the D2LR, the cells were transfected with 1 μg Rluc8-tagged D2LR, 4 μg YFP–β-arrestin-2 and 2 μg GRK2. […] The cells were incubated with Coelenterazine (Promega) at a final concentration of 5 μM for 5 min, followed by stimulation with the agonists for an additional 5 min before the BRET readings were captured.

For assay [2], the target named is T1, D2LR. Briefly: biochemical.
Method: (§1) The cells were harvested in PBS containing 2 mM EDTA and centrifuged at 300 g for 3 min. The resulting pellet was resuspended in ice-cold assay buffer (20 mM HEPES, 100 mM NaCl, 6 mM MgCl2, 1 mM EGTA and 1 mM EDTA pH 7.4) and the centrifugation step was repeated. The intact cell pellet was then resuspended in assay buffer and homogenized using a Polytron homogenizer. After centrifugation (1,000 g, 10 min), the pellet was discarded and the supernatant was recentrifuged at 30,000 g for 1 h at 4 °C using a Sorvall Evolution RC ultracentrifuge (Thermo Scientific). The resulting pellet was resuspended in assay buffer and stored in 250 μl aliquots at −80 °C. Membrane protein concentration was determined using the method of Bradford.
(§2) All radioligand binding experiments were conducted at 37 °C in a 1-ml reaction volume in assay buffer (20 mM HEPES, 100 mM NaCl, 6 mM MgCl2, 1 mM EGTA and 1 mM EDTA pH 7.4) containing 100 μM GppNHp and 0.1% ascorbic acid. In all cases, nonspecific binding was determined in the presence of 10 μM haloperidol. […] Filter-bound radioactivity was measured by scintillation spectrometry after the addition of 3.5 ml of Ultima Gold (PerkinElmer) using a Tri-Carb 2900TR liquid scintillation counter (PerkinElmer).
(§3) where Y denotes the percentage-specific binding, Top and Bottom denote the maximal and minimal asymptotes, respectively, IC50 denotes the X-value when the response is midway between Bottom and Top, and nH denotes the Hill slope factor. IC50 values obtained from the inhibition curves were converted to Ki values using the Cheng and Prusoff equation[61].
Assay [3] concerns the target T1, D2LR. Briefly: [3H]spiperone kinetic (dissociation, association, competition association) binding. Also on record: expressed in transfected cells. Particulars: [3H]spiperone tracer.
Method: as §1, §2
The kinetic parameters of unlabelled agonists were determined using the equations described by Motulsky and Mahan[31]. […]
Assay [4] concerns the target T1, D2LR. Particulars: 0.1 nM [3H]spiperone; 3 h at 37 °C; 100 μM GppNHp.
Method: as §1, §2, §3
Where [5] appears, read: 5 minute timepoint, ND = no agonist activity detected.
Where [6] appears, read: 5 minute timepoint, dopamine as reference agonist.

Molecules are shown by their SMILES. Where two headings read alike, the source gives them in different places.

T1 sequence (P14416 whole entry): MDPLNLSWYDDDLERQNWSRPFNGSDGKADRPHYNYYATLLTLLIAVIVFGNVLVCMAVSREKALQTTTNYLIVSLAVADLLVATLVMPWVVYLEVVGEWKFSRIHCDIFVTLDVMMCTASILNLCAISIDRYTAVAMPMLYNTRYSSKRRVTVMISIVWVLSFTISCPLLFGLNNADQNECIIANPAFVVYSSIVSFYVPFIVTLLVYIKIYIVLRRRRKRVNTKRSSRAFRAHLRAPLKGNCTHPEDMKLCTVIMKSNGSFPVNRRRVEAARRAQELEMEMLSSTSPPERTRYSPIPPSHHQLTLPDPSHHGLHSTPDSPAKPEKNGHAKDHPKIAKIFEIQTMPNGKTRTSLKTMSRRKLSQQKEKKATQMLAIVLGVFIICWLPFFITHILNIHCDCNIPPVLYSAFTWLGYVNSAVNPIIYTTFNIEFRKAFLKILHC

In the case of `O=c1[nH]c2cccc(N3CCN(Cc4cccc(-c5ccccc5)c4)CC3)c2o1` [Bifeprunox, bifeprunox], in assay [1] (setting [5]), the “Log(τ/KA) β-arrestin2” value was 5.75 ± 0.16. Also, in assay [1] (setting [6]), the “ΔLog(τ/KA) β-arrestin2” value was -0.58 ± 0.21. Further, the affinity in assay [2] corresponds to a Ki of 0.0437 nM. This compound had a koff in assay [3] (Flp-In-CHO-D2LR membranes, 100 μM GppNHp, 37 °C) of 0.000167 s⁻¹. Further, the Kd in assay [3] (read-out: pKd (affinity determined from kinetic parameters) (converted)) was 0.1 nM.
As to `CN1CCN(c2cccc3[nH]c(=O)oc23)CC1` [Pardoprunox, pardoprunox], the “Log(τ/KA) β-arrestin2” value in assay [1] (setting [5]) was 6.80 ± 0.29. Besides, in assay [1] (setting [6]), the “ΔLog(τ/KA) β-arrestin2” value came out at 0.47 ± 0.32. The “pKi (affinity from competition binding experiments using [3H]spiperone)” value in assay [4] worked out at 7.63 ± 0.06.
Regarding `CCCN(CCC)CCc1cccc2c1CC(=O)N2` [Ropinirole, ropinirole], in assay [1], the “Log(τ/KA) β-arrestin2” value was 6.48 ± 0.15 and the “ΔLog(τ/KA) β-arrestin2” value came to 0.14 ± 0.20. In addition, in assay [2], the Ki was 2510 nM.

(Values after paper PMC4770093, “The role of kinetic context in apparent biased agonism at GPCRs” (Nature Communications, 2016).)
